Test results reported in patent US9302999B2, “Substituted triazoles as herbicides” (E. I. DU PONT DE NEMOURS AND COMPANY, priority 2012, dated 2016).

How the values were obtained:
Format in all cases: in vivo
[1] = tested on: pigweed (Amaranthus retroflexus); assay: Test A pre-/postemergence: pigweed; conditions: for Pigweed plant response rating: Postemergence; for Plant response rating, Pigweed: Preemergence
Procedure, shortened: (§1)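 Visual 0–100 injury ratings (0 no effect, 100 complete control) taken about ten days after treatment, relative to untreated controls. Preemergence treatment was a directed soil spray; postemergence plants were 2–10 cm tall at one- to two-leaf stage. Soil: loam/sand blend.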

[2] = tested on: wheat (Triticum aestivum); assay: Test A pre-/postemergence: wheat; conditions: for Wheat plant response rating: Postemergence; for Plant response rating, Wheat: Preemergence
Procedure, shortened: as §1

[3] = tested on: barnyardgrass (Echinochloa crus-galli); assay: Test A pre-/postemergence: barnyardgrass; conditions: for Barnyardgrass plant response rating: Postemergence; for Plant response rating, Barnyardgrass: Preemergence
Procedure, shortened: as §1

[4] = tested on: sedge, umbrella (small-flower umbrella sedge Cyperus difformis); assay: Test B flooded paddy: sedge, umbrella; conditions: Flood; 250 g ai/ha; applied to paddy water at 2-leaf stage; visually evaluated after 13 to 15 days
Procedure, shortened: (§2)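 Visual ratings (0 = no effect, 100 = complete control) versus untreated controls were taken 13–15 days after treatment of greenhouse plants. Treatment was added to paddy water held at 3 cm depth on 2-leaf-stage seedlings.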

rice (Oryza sativa) = assay: Test B flooded paddy: rice; conditions: Flood; 250 g ai/ha; applied to paddy water at 2-leaf stage; visually evaluated after 13 to 15 days
Description: (§3) Seeds selected from rice (Oryza sativa), sedge, umbrella (small-flower umbrella sedge Cyperus difformis), ducksalad (Heteranthera limosa), and barnyardgrass (Echinochloa crus-galli) were grown to the 2-leaf stage for testing. At time of treatment, test pots were flooded to 3 cm above the soil surface, treated by application of test compounds directly to the paddy water, and then maintained at that water depth for the duration of the test.
(§4) Treated plants and controls were maintained in a greenhouse for 13 to 15 days, after which time all species were compared to controls and visually evaluated. Plant response ratings, summarized in Table B, are based on a scale of 0 to 100 where 0 is no effect and 100 is complete control. A dash (-) response means no test result.

[5] = tested on: morningglory (Ipomoea spp.); assay: Test A pre-/postemergence: morningglory; conditions: for Morningglory plant response rating: Postemergence; for Plant response rating, Morningglory: Preemergence
Procedure, shortened: as §1

[6] = tested on: foxtail, giant (giant foxtail, Setaria faberii); assay: Test A pre-/postemergence: foxtail, giant; conditions: for Foxtail, Giant plant response rating: Postemergence; for Plant response rating, Foxtail, Giant: Preemergence
Procedure, shortened: as §1

[7] = tested on: velvetleaf (Abutilon theophrasti); assay: Test A pre-/postemergence: velvetleaf; conditions: for Velvetleaf plant response rating: Postemergence; for Plant response rating, Velvetleaf: Preemergence
Procedure, shortened: as §1

[8] = tested on: barnyardgrass (Echinochloa crus-galli); assay: Test B flooded paddy: barnyardgrass; conditions: Flood; 250 g ai/ha; applied to paddy water at 2-leaf stage; visually evaluated after 13 to 15 days
Procedure, shortened: as §2

[9] = tested on: crabgrass, large (large crabgrass, Digitaria sanguinalis); assay: Test A pre-/postemergence: crabgrass, large; conditions: for Crabgrass, Large plant response rating: Postemergence; for Plant response rating, Crabgrass, Large: Preemergence
Procedure, shortened: as §1

corn (Zea mays) = assay: Test A pre-/postemergence: corn; conditions: for Corn plant response rating: Postemergence; for Plant response rating, Corn: Preemergence
Procedure, shortened: as §1

[10] = tested on: ducksalad (Heteranthera limosa); assay: Test B flooded paddy: ducksalad; conditions: Flood; 250 g ai/ha; applied to paddy water at 2-leaf stage; visually evaluated after 13 to 15 days
Description: as §3, §4

[11] = 125 g ai/ha, 0 to 100 scale, 0 is no effect, 100 is complete control
[12] = 500 g ai/ha, visual rating on 0 to 100 scale (0 no effect, 100 complete control), approximately ten days
[13] = 125 g ai/ha, 0 to 100 scale (0 no effect, 100 complete control)
[14] = 500 g ai/ha, 0 to 100 scale, 0 is no effect, 100 is complete control

| Compound | Pigweed plant response rating [1, 11] | Pigweed plant response rating [1, 12] | Plant response rating, Pigweed [1, 13] | Plant response rating, Pigweed [1, 14] | Wheat plant response rating [2, 11] | Wheat plant response rating [2, 12] | Plant response rating, Wheat [2, 13] | Plant response rating, Wheat [2, 14] | Barnyardgrass plant response rating [3, 11] | Barnyardgrass plant response rating [3, 12] | Plant response rating, Barnyardgrass [3, 13] | Plant response rating, Barnyardgrass [3, 14] | Plant response rating, Sedge, Umbrella (0 to 100 scale, 0 is no effect, 100 is complete control) [4] | Plant response rating, Rice (0 to 100 scale, 0 is no effect, 100 is complete control) (rice (Oryza sativa)) | Morningglory plant response rating [5, 11] | Morningglory plant response rating [5, 12] | Plant response rating, Morningglory [5, 13] | Plant response rating, Morningglory [5, 14] | Foxtail, Giant plant response rating [6, 11] | Foxtail, Giant plant response rating [6, 12] | further results |
| --- | --- | --- | --- | --- | --- | --- | --- | --- | --- | --- | --- | --- | --- | --- | --- | --- | --- | --- | --- | --- | --- |
| Cc1cnccc1Oc1nn(-c2ccc(F)cc2)nc1C [Compound 87] | 0 | 0 | 0 | 0 | 0 | 0 | 0 | 0 | 0 | 0 | 0 | 0 | 50 | 0 | 0 | 0 | 0 | 0 | 0 | 0 | Plant response rating, Foxtail, Giant [6, 13]: 0; Plant response rating, Foxtail, Giant [6, 14]: 0; Velvetleaf plant response rating [7, 11]: 0; Velvetleaf plant response rating [7, 12]: 0; Plant response rating, Velvetleaf [7, 13]: 0; Plant response rating, Velvetleaf [7, 14]: 0; Plant response rating, Barnyardgrass (0 to 100 scale, 0 is no effect, 100 is complete control) [8]: 0; Crabgrass, Large plant response rating [9, 11]: 0; Crabgrass, Large plant response rating [9, 12]: 0; Plant response rating, Crabgrass, Large [9, 13]: 0; Plant response rating, Crabgrass, Large [9, 14]: 0; Corn plant response rating (corn (Zea mays); [11]): 0; Corn plant response rating (corn (Zea mays); [12]): 0; Plant response rating, Corn (corn (Zea mays); [13]): 0; Plant response rating, Corn (corn (Zea mays); [14]): 0; Plant response rating, Ducksalad (0 to 100 scale, 0 is no effect, 100 is complete control) [10]: 0 |
| COc1nn(-c2ccc(F)cc2)nc1C(=O)c1ccnc(C(F)(F)F)c1 [Compound 24] | 40 | 90 | 0 | 20 | 10 | 10 | 0 | 0 | 0 | 20 | 0 | 0 | 0 | 0 | 20 | 20 | 0 | 0 | 10 | 20 | Plant response rating, Foxtail, Giant [6, 13]: 20; Plant response rating, Foxtail, Giant [6, 14]: 70; Velvetleaf plant response rating [7, 11]: 20; Velvetleaf plant response rating [7, 12]: 20; Plant response rating, Velvetleaf [7, 13]: 0; Plant response rating, Velvetleaf [7, 14]: 0; Plant response rating, Barnyardgrass (0 to 100 scale, 0 is no effect, 100 is complete control) [8]: 0; Crabgrass, Large plant response rating [9, 11]: 10; Crabgrass, Large plant response rating [9, 12]: 20; Plant response rating, Crabgrass, Large [9, 13]: 0; Plant response rating, Crabgrass, Large [9, 14]: 20; Corn plant response rating (corn (Zea mays); [11]): 10; Corn plant response rating (corn (Zea mays); [12]): 20; Plant response rating, Corn (corn (Zea mays); [13]): 0; Plant response rating, Corn (corn (Zea mays); [14]): 0; Plant response rating, Ducksalad (0 to 100 scale, 0 is no effect, 100 is complete control) [10]: 0 |
